Here are results for 2 molecules from USRE34284E, “Method for assaying proteolytic enzymes” (bioMerieux Vitek, Inc., priority 1992, dated 1993).

Molecules are shown by their SMILES. Values joined by “and” are separate entries in the source; they are usually repeats but may differ in a detail not shown here. Equal entries are not always repeated. Where two headings read alike, the source gives them in different places.

As a reminder, the Km is the substrate concentration at which the rate is half of its maximum.

Assay [1] has as its system trypsin. Put plainly: Kinetic constants for trypsin-catalyzed hydrolysis of BOC-ARG-MBTH, continuous assay (Example 18). Format: biochemical. The conditions noted are these: for kc (kinetic catalytic constant) / Km: tris buffer pH 7.8, 590 nm; for Km: read-out: Km (binding constant). As to the method:
Determination of the Kinetic Constants for the Trypsin Catalyzed Hydrolysis of N-(N-t-butoxycarbonyl)-L-Arginyl 3-methyl benzothiazolinone hydrazone (continuous assay)).
In a one cm. cuvette were mixed 3.0 mL of 0.02M tris buffer, pH 7.8, containing 0.02M 3-dimethylamino benzoic acid (DMAB) 0.1 mL of 0.065M potassium ferricyanide, and 0.1 mL of substrate (BOC-ARG-MBTH). The reaction was initiated by the addition of 1 0.1 mL of trypsin (2.33×10^-4 M in 0.1M pyrophosphate buffer, pH 8.3). Eight concentrations of substrate, from 9.98×10^-4 M to 7.8×10^-6 M, were assayed in triplicate. The increase in absorption at 590 nm was monitored continuously and the initial rates were determined. Under the conditions of the assay, a molar absorptivity of 57,000 was used to determine the concentration of the chromogen (MBTH-DMAB) produced by the hydrolysis of substrate. Table I contains the date used to determine the binding and kinetic constants (Km, kc).

Assay [2] relates to trypsin. Put plainly: Continuous assay for trypsin, hydrolysis of Z-GLY-PRO-ARG-MBTH (Example 16). Format: biochemical. The conditions noted are these: 1 μg trypsin, 0.14M Tris pH 7.8, 0.0131M DMAB, 0.002M potassium ferricyanide, 3% dimethylformamide; substrate 1.74×10^-3, 5.8×10^-4 and 3.9×10^-4 M in triplicate; 590 nm, 5 minutes. The method, then:
Saturation kinetics for N-(N-benzyloxycarbonyl)glycyl-L-prolyl-L-arginyl 3-methyl-2-benzothiazolinone hydrazone with trypsin).
A continuous assay for trypsin was performed, i.e., the oxidizing and coupling reagents for color development were included with the substrate in the reaction mixture so that color development may be monitored on a continuous basis with time. In this example the dye precursor is developed to a dye without destroying the enzymatic activity of the enzyme. The reaction was initiated by the addition of 0.1 mL of enzyme (10 μg/mL) to 0.9 mL of buffer solution containing substrate (Z-GLY-PRO-ARG-MBTH) and color developing reagents. The final concentrations in the cuvette were 1 μg trypsin +0.14M Tris buffer, pH 7.8 +0.0131M 3-dimethylamino benzoic acid (DMAB) +0.002M potassium ferricyanide +3% dimethylformamide +substrate. Substrate concentrations of 1.74×10^-3 M, 5.8×10^-4 M and 3.9×10^-4 M were assayed in triplicate. The increases in absorbance at 590 nm were monitored continuously for 5 minutes and the initial rates determined. Using the molar absorptivity of 57,000 for the chromogen produced (MBTH-DMAB), the average rate of hydrolysis was calculated to be 4.43±0.1×10^-6 mol min^-1.

[3] abbreviates: Woolf-Augustinssen-Hofstee method.

Take `Cn1c(=NNC(=O)[C@H](CCCNC(=N)N)NC(=O)OC(C)(C)C)sc2ccccc21` [BOC-ARG-MBTH, N-(N-t-butoxycarbonyl)-L-Arginyl 3-methyl benzothiazolinone hydrazone]: the I/V in the assay on trypsin [1] (I/S 100 M^-1) is 0.000565 min/M and 0.000528 min/M and 0.000625 min/M; with trypsin [1] (I/S 200 M^-1), 0.000699 min/M and 0.000742 min/M; with trypsin [1] (I/S 401 M^-1) it was 0.000766 min/M and 0.00088 min/M and 0.000819 min/M; in the assay on trypsin [1] (I/S 802 M^-1), 0.00108 min/M and 0.001188 min/M and 0.001033 min/M; in the assay with trypsin [1] (I/S 1603 M^-1), 0.001697 min/M and 0.001607 min/M and 0.001827 min/M; with trypsin [1] (I/S 2305 M^-1), 0.002969 min/M and 0.003393 min/M. Moreover, the I/V in the assay on trypsin [1] (I/S 6413 M^-1) was 0.005056 min/M and 0.00528 min/M; with trypsin [1] (I/S 12826 M^-1), 0.009901 min/M and 0.009506 min/M. In addition, the V/S in the assay with trypsin [1] (I/S 100 M^-1) was 0.00177 min⁻¹ and 0.0019 min⁻¹ and 0.0016 min⁻¹; in the assay with trypsin [1] (I/S 200 M^-1), 0.00287 min⁻¹ and 0.0027 min⁻¹; with trypsin [1] (I/S 401 M^-1), 0.00523 min⁻¹ and 0.00456 min⁻¹ and 0.00489 min⁻¹; in the assay on trypsin [1] (I/S 802 M^-1), 0.00743 min⁻¹ and 0.00675 min⁻¹ and 0.00776 min⁻¹; in the assay with trypsin [1] (I/S 1603 M^-1), 0.00945 min⁻¹ and 0.00877 min⁻¹; in the assay on trypsin [1] (I/S 2305 M^-1), 0.01808 min⁻¹ and 0.0108 min⁻¹ and 0.00945 min⁻¹. The V/S with trypsin [1] (I/S 6413 M^-1) is 0.01268 min⁻¹ and 0.01215 min⁻¹; with trypsin [1] (I/S 12826 M^-1) it was 0.01295 min⁻¹ and 0.01349 min⁻¹. The “kc (kinetic catalytic constant)” value with trypsin [1] (Lineweaver-Burk plot) stood at 0.0436 s⁻¹; with trypsin [1] (setting [3]) it was 0.0428 s⁻¹. Also, the results for the Km with trypsin [1] (Lineweaver-Burk plot) and with trypsin [1] (setting [3]) were 1410 µM and 1290 µM, respectively.
On to `Cn1c(=NNC(=O)[C@H](CCCNC(=N)N)NC(=O)[C@@H]2CCCN2C(=O)CNC(=O)OCc2ccccc2)sc2ccccc21` [Z-GLY-PRO-ARG-MBTH, N-(N-benzyloxycarbonyl)glycyl-L-prolyl-L-arginyl 3-methyl-2-benzothiazolinone hydrazone], for which the “average rate of hydrolysis” value in the assay on trypsin [2] is 4.43±0.1×10^-6 mol min^-1.
